{"source": "patent US20050026957A1", "about": "“Methods of treating nodulocystic acne” (Allergan, Inc., priority 2003, published 2005)", "key": {"[1]": {"conditions": "oral, cited from earlier work; for impact of food on bioavailability: literature"}, "[2]": {"tested_on": "sebaceous glands", "conditions": "severe acne; published reports (Geiger); cited from earlier work"}, "[3]": {"conditions": "in vivo; cited from earlier work"}, "[4]": {"tested_on": "patients treated for acne", "assay": "Adverse event monitoring in studies of orally administered tazarotene for acne (Table 2)", "assay_type": "in vivo, human", "conditions": "combined data from Studies 1 and 2 (N = 223)", "procedure": "Studies are conducted on orally administered tazarotene for the treatment of acne. Adverse events (side effects) are monitored."}, "[5]": {"tested_on": "patients", "assay": "Two placebo-controlled 24-week safety studies of oral tazarotene plus dose-response evaluations", "assay_type": "in vivo, human", "conditions": "4.5 mg orally once daily; two safety trials; placebo 17%", "procedure": "Two multicenter, double-blind, randomized, placebo-controlled 24-week studies of identical design are conducted to evaluate the safety of oral tazarotene. In addition, 16- to 24-week dose-response evaluations are performed.\nIn the two safety trials, the incidence of adverse side effects with a 4.5 mg dose administered orally once daily is compared to the incidence of the same side effects with a placebo. […] The majority of these were mild in severity and typical of adverse effects associated with oral retinoids."}, "[6]": {"tested_on": "patients having nodulocystic acne", "assay": "Two placebo-controlled dose-ranging safety studies of oral tazarotene in nodulocystic acne", "assay_type": "in vivo, human", "conditions": "for cheilitis: treatment period; for Emotional lability: all cases mild", "procedure": "Two placebo-controlled dose-ranging studies are conducted to evaluate the safety of oral tazarotene in patients having nodulocystic acne. In the first study, patients receive orally administered tazarotene at daily doses of 0.4 mg to 2.8 mg in 96 (71+25) patients (12 weeks treatment plus 12 weeks post-treatment). In the second study, daily doses of 0.75 mg to 6 mg tazarotene are administered to 181 patients (24 weeks treatment plus 12 weeks post-treatment)."}, "[7]": {"tested_on": "severe psoriasis", "assay": "Patient with severe psoriasis on Ortho-Novum treated with tazarotene", "assay_type": "in vivo, human", "conditions": "6 mg per day; after 30 days", "excerpt": "The patient presents symptoms of severe psoriasis. The symptoms include lesions approximately 4 to 10 centimeters across appearing as raised patches of wine red skin many of which are covered in silvery white scales. The lesions are mostly dry and rough, and quite often noticeably warm to the touch. The lesions are present on the elbows, knees, scalp, and groin area. The patient experiences intense burning and itching associated with the lesions.\nThe patient is currently taking Ortho-Novum® for contraception.\nTazarotene at a dose of 6 mg per day is prescribed."}, "[8]": {"tested_on": "severe nodulocystic acne", "assay": "Double-blind, randomized, placebo-controlled study of oral tazarotene in severe nodulocystic acne", "assay_type": "in vivo, human", "excerpt": "A multicenter, double-blind, randomized, placebo-controlled parallel-group study is undertaken to determine the efficacy of orally administered tazarotene in treating severe nodulocystic acne.\nIn addition, washout periods for other medications for this study are: 1 week for vitamin A supplements >5000 IU; 2 weeks for topical anti-acne medications (e.g., retinoids, azelaic acid, benzoyl peroxide); 2 weeks for topical or systemic antibiotic therapy that may alter the course of acne; and 6 months for systemic retinoids.\nPatients are randomized to receive placebo or oral tazarotene (0.75, 1.5, 3, or 6 mg), in a 1:1:1:1:1 ratio once daily for 24 weeks. After this, the patients are followed without treatment for an additional 12 weeks. Patients discontinuing from the treatment period due to adverse effects or lack of efficacy are eligible for entry into the post-treatment phase.\nIn the study, overall acne severity is rated as: none (no inflammatory acne lesions); mild (few to several papules or pustules, no nodulocystic lesions); moderate (several to many papules or pustules, few to several nodulocystic lesions); and severe (numerous or extensive papules or pustules, many, for example, at least about 5 or at least about 10, nodulocystic lesions). […]\n(§1) Sebum output is assessed every 4 weeks at selected centers using the Sebutape® patches, sold by Cuderm Corporation. Urinalysis, chemistry, and hematology values are monitored. Bone formation and resorption assessments (serum bone alkaline phosphatase and serum amino terminal telopeptides, respectively) at selected centers are monitored.\nBone mineral density of spine and proximal femur at selected centers is monitored. Ligament calcification or osteophyte formation (lateral X-ray of the cervical and thoracic spine, and ankle calcaneous) is monitored. Epiphyseal growth plate closure (internal oblique X-ray of the ankle in patients less than or equal to 21 years old) is monitored."}, "[9]": {"tested_on": "sebum secretion", "assay": "Sebum output by Sebutape patches in the nodulocystic acne study", "assay_type": "in vivo, human", "conditions": "oral 0.75 to 6 mg once daily; up to 86 patients", "procedure": "as §1\nSebum secretion output is assessed in a maximum of 86 patients (with successively fewer patients at each timepoint—e.g., 60 patients at week 24, 46 patients at week 36). Importantly, there is no consistent statistically significant differences in sebum production across treatment groups using the Sebutape® method of assessment."}, "[10]": {"assay": "Food effect on pharmacokinetics of tazarotenic acid after oral tazarotene (high-fat meal vs fast)", "assay_type": "in vivo, human", "conditions": "6.3 mg oral tazarotene, healthy subjects; for average ratio of Cmax values (test/reference): high-fat meal vs 8-10 hour fast", "procedure": "For the purposes of this application, the bioavailability of a drug may be based on the human pharmokinetic parameters of maximum blood concentration (Cmax) and Area under the blood concentration-time curve (AUC).\nThe LC-MS/MS test for simultaneous detection of tazarotene and tazarotenic acid may be run as follows. One ml of plasma (EDTA-treated) is diluted with 1.0 ml of water. Diluted plasma is extracted using solid phase extraction (SPE) on a C18 cartridge. The eluate is evaporated, reconstituted in a water/methanol-based mobile phase, and injected onto a 4.6×50 mm, 3 μm pore size C-8 reverse phase high pressure liquid chromatography (HPLC) column (Agilent, Wilmington, Del.). Compounds are gradient-eluted at 1.2 mL/min and detected using an API 3000 triple quadrupole mass spectrometer with an Atmospheric Pressure Chemical Ionization (APCI) source (PE-Sciex, Concord, Ontario, Canada). Molecular reaction monitoring enhances the sensitivity and selectivity of this assay by collisionally dissociating the protonated molecules for the analyte and an internal standard thereby forming the product ions. The specific precursor-product ion pair monitored are m/z 352→324 for tazarotene, m/z 359→331 for the tazarotene internal standard, m/z 324→294 for tazarotenic acid, and m/z 331+298 for the tazarotenic acid internal standard. The lower limit of quantitation at assay range tested is 0.1 ng/mL, with a coefficient of variation and deviation from nominal concentration of <15%."}, "[11]": {"assay": "PK and PD interaction studies of oral tazarotene with oral contraceptives", "assay_type": "in vivo, human", "conditions": "tazarotene 1.1 mg or 6 mg daily with NE/EE or NGM/EE", "procedure": "It is the objective of this study to determine if there are pharmacokinetic (PK) and pharmacodynamic (PD) interactions between tazarotene and commonly prescribed oral contraceptives (OCs) when coadministered together.\nThree separate clinical studies are conducted to evaluate the PK and PD interactions of oral tazarotene and OCs in healthy volunteers. Two studies evaluate daily doses of norethindrone (NE)/ethinyl estradiol (EE) with daily doses of tazarotene 1.1 mg (N=27) and 6 mg (N=29). The third study assesses the daily doses of norgestimate (NGM)/EE with daily doses of tazarotene 6 mg (N=26). OCs are administered for three consecutive menstrual cycles. Daily doses of tazarotene are started during the 2nd cycle and continued through the end of the studies. PK parameters for EE, NE, and NGM (AUC0-24 and Cmax) are determined before tazarotene dosing and after tazarotene dosing on day 6 of the 2nd and 3rd cycles. Serum concentrations of luteinizing hormone (LH) and follicle-stimulating hormone (FSH)-markers of contraceptive efficacy are also evaluated before tazarotene dosing and after tazarotene dosing on days 2, 4, and 6 of the 2nd and 3rd cycles. Serum progesterone levels are assessed on days 18 and 20 of the 2nd and 3rd cycles. […]"}, "[12]": {"conditions": "topical administration of tazarotene; 'often well less than'; cited from earlier work"}}}
{"smiles": "COc1cc(C)c(/C=C/C(C)=C/C=C/C(C)=C/C(=O)O)c(C)c1C", "note": "[Acitretin, acitretin]", "values": [{"measurement": "impact of food on bioavailability", "setting": "[1]", "result": "bioavailability is increased in the presence of food"}]}
{"smiles": "CC1=C(/C=C/C(C)=C/C=C/C(C)=C\\C(=O)O)C(C)(C)CCC1", "note": "[Isotretinoin, isotretinoin]", "values": [{"measurement": "decrease in sebum secretion rate", "setting": "[2]", "result": "about 90%"}, {"measurement": "total dose needed to reach the same peak blood concentration in the fasted state vs following a high fat meal", "setting": "[1]", "result": "more than doubled"}, {"measurement": "impact of food on bioavailability", "setting": "[1]", "result": "bioavailability is increased in the presence of food"}, {"measurement": "effect on coadministered contraceptive tablets", "setting": "[3]", "result": "decreases blood concentrations of both ethinyl estradiol and norethindrone"}]}
{"smiles": "C=C(c1ccc(C(=O)O)cc1)c1cc2c(cc1C)C(C)(C)CCC2(C)C", "note": "[bexarotene]", "values": [{"measurement": "impact of food on bioavailability", "setting": "[1]", "result": "bioavailability is increased in the presence of food"}]}
{"smiles": "CCOC(=O)c1ccc(C#Cc2ccc3c(c2)C(C)(C)CCS3)nc1", "note": "[tazarotene]", "values": [{"measurement": "Conjunctivitis", "setting": "[4]", "result": "0 (0.0) NUMBER OF (%) OF PATIENTS"}, {"measurement": "Irritation of eyes", "setting": "[4]", "result": "0 (0.0) NUMBER OF (%) OF PATIENTS"}, {"measurement": "incidence of cheilitis", "setting": "[5]", "result": 66, "unit": "%"}, {"measurement": "joint disorder", "setting": "[6]; 2.8 mg, n=11, placebo 0%", "result": 27, "unit": "%"}, {"measurement": "arthralgia", "setting": "[6]; 2.8 mg, n=11, placebo 6%", "result": 9, "unit": "%"}, {"measurement": "myalgia", "setting": "[6]; 2.8 mg, n=11, placebo 9%", "result": 0, "unit": "%"}, {"measurement": "asthenia", "setting": "[6]; 2.8 mg, n=11, placebo 13%", "result": 0, "unit": "%"}, {"measurement": "dry skin", "setting": "[6]; 2.8 mg, n=11, placebo 19%", "result": 18, "unit": "%"}, {"measurement": "headache", "setting": "[6]; 2.8 mg, n=11, placebo 28%", "result": 9, "unit": "%"}, {"measurement": "cheilitis", "setting": "[6]; 2.8 mg, n=11, placebo 31%", "result": 64, "unit": "%"}, {"measurement": "Emotional lability", "setting": "[6]; 3 mg group, placebo 2 (4%)", "result": "1 (3%) patient (%)"}, {"measurement": "arthralgia", "setting": "[6]; 3 mg, n=37", "result": 8, "unit": "%"}, {"measurement": "asthenia", "setting": "[6]; 3 mg, n=37", "result": 19, "unit": "%"}, {"measurement": "dry skin", "setting": "[6]; 3 mg, n=37", "result": 35, "unit": "%"}, {"measurement": "headache", "setting": "[6]; 3 mg, n=37", "result": 19, "unit": "%"}, {"measurement": "joint disorder", "setting": "[6]; 3 mg, n=37", "result": 14, "unit": "%"}, {"measurement": "myalgia", "setting": "[6]; 3 mg, n=37", "result": 16, "unit": "%"}, {"measurement": "cheilitis", "setting": "[6]; 3 mg, n=37", "result": 78, "unit": "%"}, {"measurement": "Depression", "setting": "[6]; 6 mg group", "result": "none"}, {"measurement": "Emotional lability", "setting": "[6]; 6 mg group", "result": "5 (14%) patient (%)"}, {"measurement": "arthralgia", "setting": "[6]; 6 mg, n=36", "result": 28, "unit": "%"}, {"measurement": "asthenia", "setting": "[6]; 6 mg, n=36", "result": 19, "unit": "%"}, {"measurement": "dry skin", "setting": "[6]; 6 mg, n=36", "result": 50, "unit": "%"}, {"measurement": "headache", "setting": "[6]; 6 mg, n=36", "result": 36, "unit": "%"}, {"measurement": "joint disorder", "setting": "[6]; 6 mg, n=36", "result": 19, "unit": "%"}, {"measurement": "myalgia", "setting": "[6]; 6 mg, n=36", "result": 25, "unit": "%"}, {"measurement": "cheilitis", "setting": "[6]; 6 mg, n=36", "result": 94, "unit": "%"}, {"measurement": "changes in urinalysis, chemistry, or hematology measures (incl. liver function tests, triglycerides, total cholesterol, HDL cholesterol)", "setting": "[6]; 0.4 to 6 mg daily", "result": "no consistent dose-related clinically significant changes"}, {"measurement": "patients withdrawing from either study due to adverse events", "setting": "[6]; 7/277, all groups of both studies incl. placebo", "result": 2.5, "unit": "%"}, {"measurement": "psoriasis symptoms and lesions", "setting": "[7]", "result": "symptoms of itching and burning are relieved"}, {"measurement": "incidence of treatment success (≧50% global improvement) vs placebo", "setting": "[8]; 3 mg and 6 mg, week 24 and throughout post-treatment phase, p≦0.05", "result": "significantly higher"}, {"measurement": "reduction of overall acne severity", "setting": "[8]; 6 mg, week 16 until end of post-treatment phase, p≦0.01", "result": "significantly more than placebo"}, {"measurement": "abnormalities in liver function test results or elevated triglycerides, total cholesterol, or HDL cholesterol", "setting": "[8]; oral 0.75 to 6 mg once daily", "result": "not generally associated"}, {"measurement": "effect on sebum secretion (Sebutape method)", "setting": "[9]", "result": "does not substantially reduce sebum secretion relative to placebo"}]}
{"smiles": "CC1(C)CCSc2ccc(C#Cc3ccc(C(=O)O)cn3)cc21", "note": "[tazarotenic acid]", "values": [{"measurement": "effect of high-fat meal on bioavailability or pharmacokinetics", "setting": "[10]; single and multiple dose", "result": "does not substantially affect"}, {"measurement": "average ratio of Cmax values (test/reference)", "setting": "[10]; Day 0", "result": 1.00}, {"measurement": "average ratio of Cmax values (test/reference)", "setting": "[10]; Day 9", "result": 0.829}, {"measurement": "90% confidence intervals of AUC0-24 and Cmax for EE, NE, and NGM", "setting": "[11]", "result": "within the 80-125% boundary"}, {"measurement": "maximum blood concentration", "setting": "[12]", "result": "less than 30 ng/ml"}]}
